Laboratory results: article PMC8290231 (Cancer Medicine, 2021)

System: pAKT in NCI‐H716
Test: Western blot of pAKT
Type: cell-based
Details: NCI‐H716, FGFR2 overexpressed, 3.7 to 300 nM
Method: Cells were treated with different concentrations of compound or DMSO for indicated time. Then, cells were lysed with 1 × SDS sample lysis buffer (recommended by CST). […] After blocking with 5% BSA in TBST solution (0.5% Tween‐20) at room temperature for 4 hrs, the membranes were incubated with the corresponding primary antibody (1:2000–1:200) at 4℃ overnight. After washing with TBST for 3–5 times, the HRP‐conjugated secondary antibodies were incubated for 2 hrs. The protein signals were detected with Amersham Imager 600 system (GE, Boston, MA, USA) using an ECL western blotting detection kit (Thermo Fisher Scientific, Waltham, MA, USA).

SMILES: Cc1ccc(C(=O)Nc2ccc(CN3CCN(C)CC3)c(C(F)(F)F)c2)cc1C#Cc1cnc2[nH]ncc2c1 [GZD824]
- effect on pAKT: strongly inhibit
